Results on 3 compounds are retold here after BindingDB's records for doi:10.1124/mol.60.1.124 (U410, 2001).

As a reminder, the Ki is the dissociation constant of the complex between target and ligand, obtained from inhibition or displacement. High values mean a looser hold on the target, low ones a stronger hold on the target.

Molecules are shown by their SMILES. Values joined by “and” are separate entries in the source; they are usually repeats but may differ in a detail not shown here. Identical values can stand only once.

The experiment deals with T1, Neuropeptide Y receptor type 2 (Rattus norvegicus, UniProt Q9ERC0).
T1 sequence (Q9ERC0 whole entry): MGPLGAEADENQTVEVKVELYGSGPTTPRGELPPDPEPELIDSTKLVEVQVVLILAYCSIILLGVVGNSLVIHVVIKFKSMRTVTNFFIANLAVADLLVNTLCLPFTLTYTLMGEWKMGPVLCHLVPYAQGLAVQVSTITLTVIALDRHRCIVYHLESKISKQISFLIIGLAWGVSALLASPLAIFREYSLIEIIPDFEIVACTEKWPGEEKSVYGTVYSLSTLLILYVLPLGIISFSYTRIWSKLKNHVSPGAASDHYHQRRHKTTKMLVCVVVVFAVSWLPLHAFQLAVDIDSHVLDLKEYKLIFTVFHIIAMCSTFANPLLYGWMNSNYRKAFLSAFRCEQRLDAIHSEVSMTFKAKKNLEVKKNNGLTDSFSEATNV
`NC(N)=NCCCC(NC(=O)CC1(CC(=O)N2CCN(C3c4ccccc4NC(=O)c4ccccc43)CC2)CCCC1)C(=O)NCCn1c(=O)n(-c2ccccc2)n(-c2ccccc2)c1=O` (stereo not drawn) [NSC_5311024] showed a Ki of 6.5 nM.
The same measure for `O=c1oc2ccccc2c(O)c1C1CC(c2ccc(-c3ccccc3)cc2)Cc2ccccc21` (stereo not drawn) [NSC_41735]: 1000 nM.
For `CC(=O)N[C@@H](C)C(=O)N[C@@H](CO)C(=O)N[C@@H](CC(C)C)C(=O)N[C@@H](CCCNC(=N)N)C(=O)N[C@@H](Cc1cnc[nH]1)C(=O)N[C@@H](Cc1ccc(O)cc1)C(=O)N[C@@H](CC(C)C)C(=O)N[C@@H](CC(N)=O)C(=O)N[C@@H](CC(C)C)C(=O)N[C@H](C(=O)N[C@H](C(=O)N[C@@H](CCCNC(=N)N)C(=O)N[C@@H](CCC(N)=O)C(=O)N[C@@H](CCCNC(=N)N)C(=O)N[C@@H](Cc1ccc(O)cc1)C(N)=O)[C@@H](C)O)C(C)C` [PYY, N-alpha-Ac, 22-36], the Ki was 1.66 nM and 0.54 nM.
